According to EP0323590A2, “Carbazoyl derivatives” (ONO PHARMACEUTICAL CO., LTD., priority 1987, dated 1989):
Counter-ions that a name gives are not always drawn.

Tested on: Maillard reaction
Assay: Inhibitory effect on Maillard reaction in vitro (BSA + glucose incubation, fluorescence)
Assay type: biochemical
Conditions: 6mM test compound, 100 mg/ml bovine serum albumin (BSA), 200 mM glucose, 0.5 M phosphatic buffer pH 7.38, a week at 37°C; fluorescence excitation 360nm, emission 450 nm
Protocol: In order to evaluate the inhibitory effect on Maillard reaction in vitro, of the compounds in the present invention, the measurement was carried out under conditions described below.
After incubation, the incubated medium was diluted 100 times with the same phosphatic buffer solution, and the fluorescence spectrum was measured at the excitation maximum of 360nm and the emission maximum of 450 nm.
Inhibition percentage of the test compounds was calculated by the following equation: [formula] ΔI₁ : fluorescence of test compounds ΔI₂ : fluorescence of (test compounds + glucose), ΔI₃ : fluorescence of (test compounds + BSA), ΔI₄ : fluorescence of (test compounds + BSA + glucose), ΔI : fluorescence of (BSA + glucose)

SMILES	Inhibitory effect (%) (6mM)
NNC(=O)Nc1cccc2ccccc12 [1(j), 4-(1-naphthyl) semicorbazide hydrochloride]	100%
NNC(=O)CCc1ccccc1 [2(f), 3-phenylpropionohydrazide]	100%
Cl.Cl.NNC(=O)NCCCCCCNC(=O)NN [1(i), 4-[6-(3-aminoureido)hexyl]semicarbazide dihydrochloride]	100%
Cl.NNC(=O)Nc1ccc(Cl)cc1 [1(e), 4-(4-chlorophenyl) semicarbazide hydrochloride]	65%
CN(N)C(=O)Nc1ccccc1.Cl [1(q), 2-methyl-4-phenylsemicarbazide hydrochloride]	74%
CC(=O)NN [acetohydrazide]	35%
NC(N)=O [Urea, reference compound]	28%
NNC(=O)NC1CCCCC1 [1(a), 4-cyclohexyl semicarbozide]	100%
NNC(=O)c1ccccc1N [Example 2(a), 2-aminobenzohydrazide]	100%
Cl.NNC(=O)NCc1ccccc1 [1(f), 4-benzylsemicarbazide hydrochloride]	90%
NNC(=O)C1CCCC1 [2(i), cyclopentancarbonylhydrozine]	37%
